Measurements from article PMC12196347, “Evaluating Triazole-Substituted Pyrrolopyrimidines as CSF1R Inhibitors” (Molecules, 2025).
In brackets after ≈: the same amount, converted by molar mass. Like-named read-outs stand apart in the source and are kept apart here.

What was measured:
CDK1/cyclin B = molecular target: T1, CDK1/cyclin B (Homo sapiens, UniProt P06493); assay: Kinase panel profiling: CDK1/cyclin B; assay type: biochemical; details: ATP equal to KM
T1 construct: purchased Thermo Fisher Scientific (Invitrogen) SelectScreen (Z'-LYTE)

AURKB (Aurora B) = molecular target: T2, AURKB (Aurora B) (Homo sapiens, UniProt Q96GD4); assay: Kinase panel profiling: AURKB; assay type: biochemical; details: ATP equal to KM
T2 construct: purchased Thermo Fisher Scientific (Invitrogen) SelectScreen (Z'-LYTE)
T2 sequence (Q96GD4 whole entry): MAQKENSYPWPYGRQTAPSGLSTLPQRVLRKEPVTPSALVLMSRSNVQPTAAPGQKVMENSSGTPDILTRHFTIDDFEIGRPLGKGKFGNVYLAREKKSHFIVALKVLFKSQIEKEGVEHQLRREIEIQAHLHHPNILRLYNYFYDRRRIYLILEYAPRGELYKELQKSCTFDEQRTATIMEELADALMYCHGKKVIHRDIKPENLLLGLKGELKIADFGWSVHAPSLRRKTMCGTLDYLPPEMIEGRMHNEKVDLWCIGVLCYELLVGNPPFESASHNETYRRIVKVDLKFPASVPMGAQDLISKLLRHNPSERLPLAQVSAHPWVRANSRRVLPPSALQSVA

CLK1 = molecular target: T3, CLK1 (Homo sapiens, UniProt P49759); assay: Kinase panel profiling: CLK1; assay type: biochemical; details: ATP equal to KM
T3 construct: purchased Thermo Fisher Scientific (Invitrogen) SelectScreen (Z'-LYTE)

LTK (TYK1) = molecular target: T4, LTK (TYK1) (Homo sapiens, UniProt P29376); assay: Kinase panel profiling: LTK; assay type: biochemical; details: ATP equal to KM
T4 construct: purchased Thermo Fisher Scientific (Invitrogen) SelectScreen (Z'-LYTE)

PAK1 = molecular target: T5, PAK1 (Homo sapiens, UniProt Q13153); assay: Kinase panel profiling: PAK1; assay type: biochemical; details: ATP equal to KM
T5 construct: purchased Thermo Fisher Scientific (Invitrogen) SelectScreen (Z'-LYTE)

[1] = Human liver microsome intrinsic clearance, Phase I; assay type: in vitro ADME; details: in vitro intrinsic clearance
SRC = SRC (Homo sapiens, UniProt P12931); assay: Kinase panel profiling: SRC; assay type: biochemical; details: ATP equal to KM
SRC, sequence (P12931 whole entry): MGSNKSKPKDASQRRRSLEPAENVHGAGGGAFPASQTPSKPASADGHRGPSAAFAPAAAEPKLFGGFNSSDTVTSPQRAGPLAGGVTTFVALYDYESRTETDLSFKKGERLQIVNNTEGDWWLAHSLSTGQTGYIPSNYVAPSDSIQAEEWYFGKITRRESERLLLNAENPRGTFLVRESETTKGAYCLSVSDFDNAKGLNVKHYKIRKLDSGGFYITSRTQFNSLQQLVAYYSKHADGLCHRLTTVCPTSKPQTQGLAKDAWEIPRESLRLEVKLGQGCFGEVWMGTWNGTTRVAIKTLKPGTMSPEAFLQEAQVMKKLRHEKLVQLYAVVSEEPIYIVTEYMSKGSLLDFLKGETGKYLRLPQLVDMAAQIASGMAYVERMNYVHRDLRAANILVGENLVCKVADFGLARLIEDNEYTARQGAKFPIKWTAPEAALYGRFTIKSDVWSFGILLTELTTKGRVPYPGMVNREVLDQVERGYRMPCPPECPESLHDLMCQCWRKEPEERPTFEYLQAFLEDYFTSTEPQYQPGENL

FYN = molecular target: T6, FYN (Homo sapiens, UniProt P06241); assay: Kinase panel profiling: FYN; assay type: biochemical; details: ATP equal to KM
T6 construct: purchased Thermo Fisher Scientific (Invitrogen) SelectScreen (Z'-LYTE)

panel of 49 kinases = assay: Selectivity score from the kinase panel; assay type: biochemical; details: 1000 nM
MDCK permeability assay = assay type: in vitro ADME, canine; details: dog, MDCK cell monolayer
MKNK1 (MNK1) = molecular target: T7, MKNK1 (MNK1) (Homo sapiens, UniProt Q9BUB5); assay: Kinase panel profiling: MKNK1; assay type: biochemical; details: ATP equal to KM
T7 construct: purchased Thermo Fisher Scientific (Invitrogen) SelectScreen (Z'-LYTE)
T7 sequence (Q9BUB5 whole entry): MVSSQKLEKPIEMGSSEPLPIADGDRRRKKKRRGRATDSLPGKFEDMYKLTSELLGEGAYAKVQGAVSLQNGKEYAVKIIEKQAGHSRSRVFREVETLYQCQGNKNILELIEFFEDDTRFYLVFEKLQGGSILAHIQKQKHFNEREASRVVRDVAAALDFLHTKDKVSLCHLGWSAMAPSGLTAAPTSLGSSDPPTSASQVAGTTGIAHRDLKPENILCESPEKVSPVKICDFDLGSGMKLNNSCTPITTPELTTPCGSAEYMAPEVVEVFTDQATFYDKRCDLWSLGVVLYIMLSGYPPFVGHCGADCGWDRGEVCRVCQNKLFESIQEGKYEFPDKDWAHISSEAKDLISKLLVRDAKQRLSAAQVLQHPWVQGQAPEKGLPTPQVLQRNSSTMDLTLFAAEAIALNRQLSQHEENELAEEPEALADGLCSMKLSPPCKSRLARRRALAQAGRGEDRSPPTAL

DYRK1A = molecular target: T8, DYRK1A (Homo sapiens, UniProt Q13627); assay: Kinase panel profiling: DYRK1A; assay type: biochemical; details: ATP equal to KM
T8 construct: purchased Thermo Fisher Scientific (Invitrogen) SelectScreen (Z'-LYTE)

ALK = molecular target: T9, ALK (Homo sapiens, UniProt Q9UM73); assay: Kinase panel profiling: ALK; assay type: biochemical; details: ATP equal to KM
T9 construct: purchased Thermo Fisher Scientific (Invitrogen) SelectScreen (Z'-LYTE)
T9 sequence (Q9UM73 19-1620): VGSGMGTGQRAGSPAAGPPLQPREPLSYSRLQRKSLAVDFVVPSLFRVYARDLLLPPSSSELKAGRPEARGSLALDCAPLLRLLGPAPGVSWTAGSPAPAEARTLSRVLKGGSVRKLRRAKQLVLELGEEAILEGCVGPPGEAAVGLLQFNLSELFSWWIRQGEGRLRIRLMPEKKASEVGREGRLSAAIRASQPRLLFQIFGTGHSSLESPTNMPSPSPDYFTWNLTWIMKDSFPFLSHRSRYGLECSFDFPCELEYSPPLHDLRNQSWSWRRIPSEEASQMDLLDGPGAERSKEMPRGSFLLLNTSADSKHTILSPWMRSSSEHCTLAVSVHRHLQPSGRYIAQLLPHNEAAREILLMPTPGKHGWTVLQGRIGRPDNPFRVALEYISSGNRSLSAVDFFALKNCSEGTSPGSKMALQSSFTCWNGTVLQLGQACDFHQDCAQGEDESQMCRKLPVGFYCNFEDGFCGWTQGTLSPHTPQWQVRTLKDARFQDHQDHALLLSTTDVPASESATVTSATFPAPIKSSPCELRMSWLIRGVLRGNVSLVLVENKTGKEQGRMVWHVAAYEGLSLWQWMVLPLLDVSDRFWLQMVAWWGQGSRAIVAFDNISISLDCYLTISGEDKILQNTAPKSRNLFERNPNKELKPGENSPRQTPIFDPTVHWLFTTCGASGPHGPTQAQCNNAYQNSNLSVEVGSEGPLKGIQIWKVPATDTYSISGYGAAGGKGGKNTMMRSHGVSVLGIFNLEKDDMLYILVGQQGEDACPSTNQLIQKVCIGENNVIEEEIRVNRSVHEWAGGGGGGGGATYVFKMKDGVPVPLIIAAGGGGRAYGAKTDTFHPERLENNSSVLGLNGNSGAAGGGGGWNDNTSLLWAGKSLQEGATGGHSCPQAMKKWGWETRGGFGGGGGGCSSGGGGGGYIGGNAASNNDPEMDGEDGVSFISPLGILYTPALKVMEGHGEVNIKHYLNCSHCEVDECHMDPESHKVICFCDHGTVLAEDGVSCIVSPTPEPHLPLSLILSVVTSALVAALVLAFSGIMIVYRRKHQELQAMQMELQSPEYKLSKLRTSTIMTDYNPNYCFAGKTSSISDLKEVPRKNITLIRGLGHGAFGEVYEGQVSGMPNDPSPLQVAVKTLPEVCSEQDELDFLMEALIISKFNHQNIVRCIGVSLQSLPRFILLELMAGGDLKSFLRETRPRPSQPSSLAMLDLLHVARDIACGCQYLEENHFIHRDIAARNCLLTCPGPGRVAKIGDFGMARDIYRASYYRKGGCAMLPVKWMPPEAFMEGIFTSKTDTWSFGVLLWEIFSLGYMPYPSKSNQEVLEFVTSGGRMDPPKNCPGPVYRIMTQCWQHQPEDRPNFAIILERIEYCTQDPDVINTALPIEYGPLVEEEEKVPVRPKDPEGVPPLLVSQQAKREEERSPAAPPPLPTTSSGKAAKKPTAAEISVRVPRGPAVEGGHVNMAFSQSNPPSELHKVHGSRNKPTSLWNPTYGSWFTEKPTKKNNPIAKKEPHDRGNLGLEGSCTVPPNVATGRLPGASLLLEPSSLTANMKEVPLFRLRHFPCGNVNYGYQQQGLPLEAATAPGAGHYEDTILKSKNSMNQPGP

HCK = molecular target: T10, HCK (Homo sapiens, UniProt P08631); assay: Kinase panel profiling: HCK; assay type: biochemical; details: ATP equal to KM
T10 construct: purchased Thermo Fisher Scientific (Invitrogen) SelectScreen (Z'-LYTE)

PLK1 = PLK1 (Homo sapiens, UniProt P53350); assay: Kinase panel profiling: PLK1; assay type: biochemical; details: ATP equal to KM
AKT1 (PKB alpha) = molecular target: T11, AKT1 (PKB alpha) (Homo sapiens, UniProt P31749); assay: Kinase panel profiling: AKT1; assay type: biochemical; details: ATP equal to KM
T11 construct: purchased Thermo Fisher Scientific (Invitrogen) SelectScreen (Z'-LYTE)
T11 sequence (P31749 whole entry): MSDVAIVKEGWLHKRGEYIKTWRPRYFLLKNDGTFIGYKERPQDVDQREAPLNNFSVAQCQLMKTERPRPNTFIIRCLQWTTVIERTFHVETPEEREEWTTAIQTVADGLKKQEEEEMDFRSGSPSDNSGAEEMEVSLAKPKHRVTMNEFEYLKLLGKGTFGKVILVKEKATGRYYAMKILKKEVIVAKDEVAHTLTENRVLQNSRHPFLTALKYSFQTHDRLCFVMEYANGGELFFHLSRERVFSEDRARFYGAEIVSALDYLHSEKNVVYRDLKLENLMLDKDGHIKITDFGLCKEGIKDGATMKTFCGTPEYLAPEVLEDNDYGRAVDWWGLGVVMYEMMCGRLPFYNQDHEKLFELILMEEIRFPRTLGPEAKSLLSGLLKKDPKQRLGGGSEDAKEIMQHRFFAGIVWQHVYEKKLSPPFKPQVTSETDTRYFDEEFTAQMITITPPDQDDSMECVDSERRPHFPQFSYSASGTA

ERBB4 (HER4) = molecular target: T12, ERBB4 (HER4) (Homo sapiens, UniProt Q15303); assay: Kinase panel profiling: ERBB4; assay type: biochemical; details: ATP equal to KM
T12 construct: purchased Thermo Fisher Scientific (Invitrogen) SelectScreen (Z'-LYTE)

[2] = Kinetic solubility, spectrophotometric; assay type: physicochemical; details: aqueous buffer, kinetic from dmso stock, spectrophotometrically at pH 7.4 in HEPES buffer
CAMK1D (CaMKI delta) = molecular target: T13, CAMK1D (CaMKI delta) (Homo sapiens, UniProt Q8IU85); assay: Kinase panel profiling: CAMK1D; assay type: biochemical; details: ATP equal to KM
T13 construct: purchased Thermo Fisher Scientific (Invitrogen) SelectScreen (Z'-LYTE)

BLK = molecular target: T14, BLK (Homo sapiens, UniProt P51451); assay: Kinase panel profiling: BLK; assay type: biochemical; details: ATP equal to KM
T14 construct: purchased Thermo Fisher Scientific (Invitrogen) SelectScreen (Z'-LYTE)

NEK1 = molecular target: T15, NEK1 (Homo sapiens, UniProt Q96PY6); assay: Kinase panel profiling: NEK1; assay type: biochemical; details: ATP equal to KM
T15 construct: purchased Thermo Fisher Scientific (Invitrogen) SelectScreen (Z'-LYTE)

BTK = molecular target: T16, BTK (Homo sapiens, UniProt Q06187); assay: Kinase panel profiling: BTK; assay type: biochemical; details: ATP equal to KM
T16 construct: purchased Thermo Fisher Scientific (Invitrogen) SelectScreen (Z'-LYTE)

MET (cMet) = molecular target: T17, MET (cMet) (Homo sapiens, UniProt P08581); assay: Kinase panel profiling: MET; assay type: biochemical; details: ATP equal to KM
T17 construct: purchased Thermo Fisher Scientific (Invitrogen) SelectScreen (Z'-LYTE)
T17 sequence (P08581 25-1390): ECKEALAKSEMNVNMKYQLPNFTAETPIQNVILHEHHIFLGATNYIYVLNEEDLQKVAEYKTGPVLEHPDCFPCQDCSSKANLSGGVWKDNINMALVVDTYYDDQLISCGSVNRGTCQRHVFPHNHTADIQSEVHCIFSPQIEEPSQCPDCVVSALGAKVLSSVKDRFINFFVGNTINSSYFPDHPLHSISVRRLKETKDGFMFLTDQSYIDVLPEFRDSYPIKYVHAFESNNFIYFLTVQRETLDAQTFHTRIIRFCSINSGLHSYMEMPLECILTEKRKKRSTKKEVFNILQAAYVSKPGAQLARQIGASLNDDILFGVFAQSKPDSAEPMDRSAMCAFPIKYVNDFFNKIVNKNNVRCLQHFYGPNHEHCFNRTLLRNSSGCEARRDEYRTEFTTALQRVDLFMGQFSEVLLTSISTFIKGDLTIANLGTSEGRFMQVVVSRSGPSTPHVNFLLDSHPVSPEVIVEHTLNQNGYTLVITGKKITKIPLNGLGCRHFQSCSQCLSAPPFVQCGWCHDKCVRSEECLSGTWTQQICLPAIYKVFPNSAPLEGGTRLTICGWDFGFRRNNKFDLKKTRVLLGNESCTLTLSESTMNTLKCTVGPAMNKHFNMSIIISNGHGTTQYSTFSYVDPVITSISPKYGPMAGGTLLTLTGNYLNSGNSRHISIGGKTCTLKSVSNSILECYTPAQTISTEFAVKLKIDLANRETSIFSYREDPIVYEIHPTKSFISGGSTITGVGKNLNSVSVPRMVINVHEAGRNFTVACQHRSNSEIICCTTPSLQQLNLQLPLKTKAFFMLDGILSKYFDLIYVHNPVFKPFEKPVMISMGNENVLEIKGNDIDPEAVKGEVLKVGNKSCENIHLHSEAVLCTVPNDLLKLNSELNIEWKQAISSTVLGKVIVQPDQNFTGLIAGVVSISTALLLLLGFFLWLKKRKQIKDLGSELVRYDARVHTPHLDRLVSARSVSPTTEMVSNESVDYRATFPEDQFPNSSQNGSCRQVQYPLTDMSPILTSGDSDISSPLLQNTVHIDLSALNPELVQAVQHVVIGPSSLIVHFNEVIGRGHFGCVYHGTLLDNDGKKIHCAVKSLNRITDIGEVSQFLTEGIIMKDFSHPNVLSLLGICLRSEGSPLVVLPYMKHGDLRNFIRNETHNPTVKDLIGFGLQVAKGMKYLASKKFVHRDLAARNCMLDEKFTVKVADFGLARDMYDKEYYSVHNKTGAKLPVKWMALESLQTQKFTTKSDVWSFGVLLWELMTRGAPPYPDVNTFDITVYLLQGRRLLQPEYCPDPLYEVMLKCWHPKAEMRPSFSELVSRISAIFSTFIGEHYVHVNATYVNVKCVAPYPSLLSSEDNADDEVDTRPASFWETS

[3] = 1000 nM test concentration, read-out: Average inhibition (%)
[4] = 1000 nM, first data point, read-out: Inhibition (%)
[5] = 1000 nM, second data point, read-out: Inhibition (%)

Cc1cccc(CN(C)c2ncnc3[nH]c(-c4cn(Cc5cccnc5)nn4)cc23)c1 [Compound 27a, N-Methyl-N-(3-methylbenzyl)-6-(1-(pyridin-3-ylmethyl)-1H-1,2,3-triazol-4-yl)-7H-pyrrolo[2,3-d]pyrimidin-4-amine]
inhibition at 1 µM (CDK1/cyclin B; [3]): 27% | inhibition at 1 µM (CDK1/cyclin B; [4]): 24% | inhibition at 1 µM (CDK1/cyclin B; [5]): 29% | inhibition at 1 µM (AURKB (Aurora B); [3]): 47% | inhibition at 1 µM (AURKB (Aurora B); [4]): 47% | inhibition at 1 µM (AURKB (Aurora B); [5]): 46% | inhibition at 1 µM (CLK1; [3]): 8% | inhibition at 1 µM (CLK1; [4]): 8% | inhibition at 1 µM (LTK (TYK1); [3]): 25% | inhibition at 1 µM (LTK (TYK1); [4]): 25% | inhibition at 1 µM (PAK1; [3]): 2% | inhibition at 1 µM (PAK1; [4]): 4% | inhibition at 1 µM (PAK1; [5]): 0% | HLM [1]: 53.7 µL/min/mg | inhibition at 1 µM (SRC; [3]): 96% | inhibition at 1 µM (SRC; [4]): 96% | inhibition at 1 µM (SRC; [5]): 95% | inhibition at 1 µM (FYN; [3]): 76% | inhibition at 1 µM (FYN; [4]): 75% | inhibition at 1 µM (FYN; [5]): 77% | selectivity score (S-score) (panel of 49 kinases; 30% inhibition as threshold): 0.51 | selectivity score (S-score) (panel of 49 kinases; 50% inhibition as threshold): 0.35 | Papp A→B (MDCK permeability assay; A-B direction): 1.27 ×10⁻⁶ cm/s | Papp B→A (MDCK permeability assay; B-A direction): 3.18 ×10⁻⁶ cm/s | efflux ratio (MDCK permeability assay; read-out: Ratio Papp B > A/Papp A > B): 2.5 | inhibition at 1 µM (MKNK1 (MNK1); [3]): 2% | inhibition at 1 µM (MKNK1 (MNK1); [4]): 3% | inhibition at 1 µM (MKNK1 (MNK1); [5]): 1% | inhibition at 1 µM (DYRK1A; [3]): 5% | inhibition at 1 µM (DYRK1A; [4]): 5% | inhibition at 1 µM (DYRK1A; [5]): 4% | inhibition at 1 µM (ALK; [3]): 24% | inhibition at 1 µM (ALK; [4]): 24% | inhibition at 1 µM (ALK; [5]): 25% | inhibition at 1 µM (HCK; [3]): 77% | inhibition at 1 µM (HCK; [4]): 77% | inhibition at 1 µM (HCK; [5]): 76% | inhibition at 1 µM (PLK1; [3]): 6% | inhibition at 1 µM (PLK1; [4]): 5% | inhibition at 1 µM (PLK1; [5]): 6% | inhibition at 1 µM (AKT1 (PKB alpha); [3]): 2% | inhibition at 1 µM (AKT1 (PKB alpha); [4]): 3% | inhibition at 1 µM (AKT1 (PKB alpha); [5]): 1% | inhibition at 1 µM (ERBB4 (HER4); [3]): 14% | inhibition at 1 µM (ERBB4 (HER4); [4]): 13% | inhibition at 1 µM (ERBB4 (HER4); [5]): 15% | solubility kinetic [2]: 3.1 µM (≈ 1.27 µg/mL) | inhibition at 1 µM (CAMK1D (CaMKI delta); [3]): 5% | inhibition at 1 µM (CAMK1D (CaMKI delta); [4]): 2% | inhibition at 1 µM (CAMK1D (CaMKI delta); [5]): 9% | inhibition at 1 µM (BLK; [3]): 69% | inhibition at 1 µM (BLK; [4]): 69% | inhibition at 1 µM (NEK1; [3]): 28% | inhibition at 1 µM (NEK1; [4]): 28% | inhibition at 1 µM (BTK; [3]): 46% | inhibition at 1 µM (BTK; [4]): 50% | inhibition at 1 µM (BTK; [5]): 42% | inhibition at 1 µM (MET (cMet); [3]): 13% | inhibition at 1 µM (MET (cMet); [4]): 10% | inhibition at 1 µM (MET (cMet); [5]): 16%
